Legend:
MHH-ES-1 cells [1] = assay: Cell viability (MTT) assay, MHH-ES-1; assay type: cell-based, human; details: MHH-ES-1, 3-day treatment
Experimental: (§1) 2,000 indicated cells were seeded in each well of 96-well plates for MTT assays to monitor cell viability at indicated time periods using a method adapted from https://www.thermofisher.com/us/en/home/references/protocols/cell-culture/mtt-assay-protocol/vybrant-mtt-cell-proliferation-assay-kit.html. Briefly, at indicated time points post-cell seeding, 10 μL MTT solution was added into each well and incubated in the culture incubator (37° C. with 5% CO2) for 4 hrs. Then medium was removed and 100 μL DMSO was added into each well to dissolve the formazan crystal and incubated for 10 min at 37° C. After thorough mixing, absorbance at 540 nm was measured using the BioTek Cytation 5 Cell Imaging reader.

EWS-FLI1 = assay: Immunoblot of EWS-FLI1 protein abundance in cells; assay type: cell-based, human
Jurkat cells = assay: Cell proliferation of Jurkat cells; assay type: cell-based, human
Experimental: as §1

[2] = test system: A673 cells expressing EWS-FLI1-3A; assay: Growth of A673 cells expressing EWS-FLI1-3A; assay type: cell-based, human
Experimental: as §1

[3] = target: T1, OTUD7A-mediated deubiquitination of EWS-FLI1 (Homo sapiens, UniProt Q8TE49); assay: Ni-NTA pulldown ubiquitination assay in HEK293T cells; assay type: cell-based; details: compound added 10 hrs prior to cell collection (FIG. 5C)
T1 construct: Myc-Flag; expressed in transfected cells; host or cells: HEK293T
Experimental: (§2) Cells were lysed in EBC buffer (50 mM Tris pH 7.5, 120 mM NaCl, 0.5% NP-40) or Triton X-100 buffer (50 mM Tris pH 7.5, 150 mM NaCl, 1% Triton X-100) supplemented with protease inhibitors (Complete Mini, Roche) and phosphatase inhibitors (phosphatase inhibitor cocktail set I and II, Calbiochem). The protein concentrations of whole cell lysates were measured by NanoDrop OneC using the Bio-Rad protein assay reagent as described previously. Equal amounts of whole cell lysates were resolved by SDS-PAGE and immunoblotted with indicated antibodies. For immunoprecipitations analysis, unless specified, 1000 μg lysates were incubated with the indicated antibody (1-2 μg) for 3-4 hr at 4° C. followed by 1 hr incubation with 10 μL Protein A magnetic beads (New England Biolabs). Or 1000 μg lysates containing tagged molecules were incubated with agarose beads coupled antibodies for the specific tag for 3-4 hr at 4° C. For endogenous IPs, incubation of cell lysates with antibodies was extended to overnight. The recovered immuno-complexes were washed five times with NETN buffer (20 mM Tris, pH 8.0, 100 mM NaCl, 1 mM EDTA and 0.5% NP-40) before being resolved by SDS-PAGE and immunoblotted with indicated antibodies.

MHH-ES-1 cells [4] = assay: 2D colony formation assay, MHH-ES-1; assay type: cell-based, human; details: MHH-ES-1, 2-week treatment (FIG. 5J)
Experimental: Indicated cells were seeded into 6-well plates (300 or 600 cells/well) or 6 cm dishes (500 or 1,000 cells/dish) and cultured in 37° C. incubator with 5% C02 for ˜14 days (as indicated in figure legends) until formation of visible colonies. Colonies were washed with 1×PBS and fixed with 10% acetic acid/10% methanol for 30 min, stained with 20% acidic acid/10% Methanol with 0.1% crystal violet until colonies were visibly stained. Colonies were then washed by tap water and air-dried. Colony numbers were manually counted. At least two independent experiments were performed to generate the error bars.

OTUD7B = target: T2, OTUD7B (Homo sapiens, UniProt Q6GQQ9); assay: Immunoblot of known OTUD7B substrates (mTORC2, APC/Cdh1); assay type: cell-based; details: MHH-ES-1 or EWS894 cells, 12 hrs (FIG. 5E)
T2 construct: endogenous in cells; host or cells: MHH-ES-1, EWS894
Experimental: as §2

[5] = target: OTUD7A binding to EWS-FLI1 (Homo sapiens, UniProt Q8TE49); assay: OTUD7A binding to EWS-FLI1 in cells; assay type: cell-based
Experimental: as §2

A673 cells [6] = assay: Cell viability (MTT) assay, A673; assay type: cell-based, human; details: A673, 3-day treatment
Experimental: as §1

HUVEC cells = assay: Cell viability (MTT) assay, HUVEC; assay type: cell-based, human; details: 72 hrs (FIG. 5S)
Experimental: as §1

[7] = test system: EWS-FLI1 target genes (NKX2.2, PSPH, LOX, TGFBR2); assay: RT-PCR of EWS-FLI1 downstream target genes; assay type: cell-based, human
Experimental: Cells were isolated by dissociation with 0.05% Trypsin, followed by media quenching. The cells were spun down at 300×rcf for 5 minutes. The media was aspirated, the pellet was suspended with 1×PBS, and then the cells were spun down again. The PBS was aspirated. RNA extraction was performed with an RNA extraction kit (BioBasic BS584). The final elution step was done with 50 μL of RNAse-free water. The […] with the NanoDrop OneC (Thermo Fisher Scientific). Three biological replicates were performed for RNA extraction. Quartile analysis was done to exclude outliers and significance was determined by one-way ANOVA tests.

A673^3A cells = assay: Cell viability (MTT) assay, A673^3A knockin; assay type: cell-based, human; details: 3-day treatment (FIG. 5I)
Experimental: Parental A673 cells were splitted into 24-well plates and transfected with sgRNA against EWS-FLI1 together with EWS-FLI1-3A-ssoDNA following protocols as described. 1-day post-transfection, cells were selected with 1 μg/ml puromycin for 3 days. Surviving cells were counted and each single cell was seeded into 96-well plates. Each single clone grown up in 96-well plates was amplified and one copy was used for genomic DNA extraction, followed by PCR and BpmI digestion to screen for potential knockin clones. BpmI negative clones are selected and sequenced to verify the knockin at the DNA level. 3 isogenic knockin clones were selected and saved.
as §1

EWS-ERG = assay: Immunoblot of EWS-ERG protein levels; assay type: cell-based, human; details: A673 cells with EWS-ERG replacing EWS-FLI1
Experimental: as §2

A673 cells [8] = assay: Transwell migration assay, A673; assay type: cell-based, human; details: A673 cells in vitro
Experimental: 1×10^5 cells were plated in an […], 24-well plate chamber insert (Corning Life Sciences, catalog no. 3422) with serum free DMEM medium at the top of the insert and the same medium containing 20% fetal bovine serum (FBS) at the bottom of the insert. Cells were incubated for 24 hr and fixed with 4% paraformaldehyde for 15 min. After washing with PBS, cells at the top of the insert were scraped with a cotton swab. Cells adherent to the bottom were stained with 0.5% crystal violet blue for 60 min and then washed with double-distilled H2O (ddH2O). The positively stained cells were examined under the microscope.

T1 sequence (Q8TE49 whole entry): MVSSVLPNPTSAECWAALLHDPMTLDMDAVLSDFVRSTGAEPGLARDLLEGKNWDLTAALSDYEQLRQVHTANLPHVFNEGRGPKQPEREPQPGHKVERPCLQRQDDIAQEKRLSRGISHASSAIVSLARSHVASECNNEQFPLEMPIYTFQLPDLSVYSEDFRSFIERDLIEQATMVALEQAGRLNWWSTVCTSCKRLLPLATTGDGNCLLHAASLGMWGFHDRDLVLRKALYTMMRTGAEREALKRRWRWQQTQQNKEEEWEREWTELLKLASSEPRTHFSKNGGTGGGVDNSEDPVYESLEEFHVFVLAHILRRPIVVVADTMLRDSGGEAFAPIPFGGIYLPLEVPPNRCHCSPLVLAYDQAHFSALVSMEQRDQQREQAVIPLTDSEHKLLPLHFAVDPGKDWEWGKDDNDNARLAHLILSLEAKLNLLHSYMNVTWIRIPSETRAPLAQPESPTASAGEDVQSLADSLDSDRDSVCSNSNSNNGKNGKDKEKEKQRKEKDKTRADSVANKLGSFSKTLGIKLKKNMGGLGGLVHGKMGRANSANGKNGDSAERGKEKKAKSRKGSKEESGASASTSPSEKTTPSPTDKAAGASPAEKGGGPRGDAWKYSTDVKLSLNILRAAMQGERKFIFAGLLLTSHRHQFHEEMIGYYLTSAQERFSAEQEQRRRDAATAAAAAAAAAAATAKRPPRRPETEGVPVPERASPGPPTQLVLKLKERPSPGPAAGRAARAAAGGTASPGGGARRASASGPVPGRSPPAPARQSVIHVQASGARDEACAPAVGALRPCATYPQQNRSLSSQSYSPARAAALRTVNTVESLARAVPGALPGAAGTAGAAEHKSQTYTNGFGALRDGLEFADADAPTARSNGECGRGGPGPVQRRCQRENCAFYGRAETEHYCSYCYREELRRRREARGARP
Chain of OTUD7A binding to EWS-FLI1 (Q8TE49 whole entry): as above
T2 sequence (Q6GQQ9 whole entry): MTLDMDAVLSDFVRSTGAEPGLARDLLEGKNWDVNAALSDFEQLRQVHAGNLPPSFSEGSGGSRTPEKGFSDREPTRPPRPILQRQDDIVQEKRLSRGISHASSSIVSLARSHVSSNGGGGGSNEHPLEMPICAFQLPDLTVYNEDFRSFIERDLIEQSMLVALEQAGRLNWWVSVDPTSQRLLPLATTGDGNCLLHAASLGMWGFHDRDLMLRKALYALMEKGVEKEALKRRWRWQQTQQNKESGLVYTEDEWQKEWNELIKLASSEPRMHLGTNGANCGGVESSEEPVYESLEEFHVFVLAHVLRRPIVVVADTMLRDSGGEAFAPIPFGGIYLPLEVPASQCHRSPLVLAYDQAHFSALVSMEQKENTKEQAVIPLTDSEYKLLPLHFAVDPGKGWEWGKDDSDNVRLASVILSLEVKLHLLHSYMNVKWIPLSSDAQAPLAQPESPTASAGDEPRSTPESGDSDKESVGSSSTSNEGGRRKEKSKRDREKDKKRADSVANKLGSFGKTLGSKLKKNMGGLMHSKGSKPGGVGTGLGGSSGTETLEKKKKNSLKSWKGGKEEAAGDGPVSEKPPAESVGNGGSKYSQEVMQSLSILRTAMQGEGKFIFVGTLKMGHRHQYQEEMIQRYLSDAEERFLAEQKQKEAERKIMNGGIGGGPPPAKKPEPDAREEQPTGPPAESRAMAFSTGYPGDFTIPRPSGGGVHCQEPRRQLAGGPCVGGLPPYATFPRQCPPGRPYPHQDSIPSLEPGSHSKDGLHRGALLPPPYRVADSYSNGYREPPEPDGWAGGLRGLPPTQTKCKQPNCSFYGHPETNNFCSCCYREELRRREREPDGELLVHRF

Question: What does the source list for `Cn1nccc1-c1cc(-c2ccnn2C)n2nc(C(=O)Nc3cnn(Cc4c(Cl)cccc4Cl)c3)cc2n1` [7Ai]?
Answer: proliferation (cell viability) (MHH-ES-1 cells [1]): reduced MHH-ES-1 proliferation; EWS-FLI1 protein abundance (EWS-FLI1; A673-teton-shOTUD7A cells): reduced EWS-FLI1 protein abundance in A673-teton-shOTUD7A; EWS-FLI1 protein abundance (EWS-FLI1; A673 and MHH-ES-1 cells, doses of 7Ai for 3 days): efficiently reduced EWS-FLI1 protein abundance in both Ewing sarcoma cells; EWS-FLI1 protein levels (EWS-FLI1; A673 and SK-N-MC cells, 10 μM, 12 hrs): reduced EWS-FLI1 protein levels in both Ewing cells; EWS-FLI1 protein levels, dose dependence (EWS-FLI1; A673 cells, indicated doses, 12 hrs (FIG. 5B)): reduced EWS-FLI1 protein levels in a dose-dependent manner; EWS-FLI1 protein expression (EWS-FLI1; MHH-ES-1, EWS894 (FIG. 5E, 12 hrs), SK-N-MC and EWS502 cells): efficiently reduced EWS-FLI1 protein expression; EWS-FLI1 protein abundance (EWS-FLI1; parental A673 cells, 10 μM, 12 hrs (FIG. 5D)): reduced EWS-FLI1 protein abundance in parental A673; cell proliferation (Jurkat cells): reduced cell proliferation of Jurkat cells; cell growth [2]: failed to significantly suppress growth; OTUD7A-mediated deubiquitination of EWS-FLI1 in cells [3]: efficiently blocked OTUD7A-mediated deubiquitination of EWS-FLI1; colony formation ability (MHH-ES-1 cells [4]): reduced colony formation ability; OTUD7B activities (known OTUD7B substrates mTORC2 and APC/Cdh1) (OTUD7B): did not significantly affect OTUD7B activities; OTUD7A binding to EWS-FLI1 [5]: did not interfere with OTUD7A binding to EWS-FLI1; proliferation (cell viability) (A673 cells [6]): reduced proliferation; proliferation (cell viability) (HUVEC cells): neglectable effects; transcription of EWS-FLI1 target genes NKX2.2 and PSPH ([7]; A673 cells (FIGS. 5K-5L)): reduced transcription of EWS-FLI1 target genes; transcription of genes negatively regulated by EWS-FLI1 (LOX and TGFBR2) ([7]; A673 cells (FIGS. 5M-5N)): increased transcription of genes negatively regulated by EWS-FLI1; proliferation (cell viability) (A673^3A cells): not observed; EWS-ERG protein levels (EWS-ERG): reduced EWS-ERG protein levels; cell migratory ability (A673 cells [8]): significantly reduced A673 cell migratory ability
